# Experimental data from US12383526B2, “Optimized sigma-1 agonist method of responder selection and treatment” (ANAVEX LIFE SCIENCES CORP., priority 2018, dated 2025).
# Tested on: subjects with mild-to-moderate AD
# Assay: KEM Formal Concept Analysis association rules (support, confidence, lift) linking patient characteristics with MMSE / ADCS-ADL response
# Set-up: species or system human
# Excerpt: A small cohort, with the number of patient observations orders of magnitude smaller than number of attributes, constitutes an analytical challenge. In this study, an unsupervised Formal Concept Analysis method (FCA), based on Galois lattices, as implemented in the KEM software (v.3.6.2), was used to identify and rank phenotypic and genotypic biomarkers. No link is assumed in this analysis between biomarkers and outcomes, enabling a hypothesis free, data-driven, generation of all relations.
# A total of 3,145,630 relations between all available features were explored. Stringent filtering excluded rules containing variables coding for the absence of DNA variants and medium RNA expression groups. Numerical filtering of rules involved the following thresholds: support (n>3), confidence (>50%), lift (≥1.2) and p-value (Fisher Exact Test or Mann-Whitney-Wilcoxon<0.05). The filtering steps led to a subset of 1,019 association rules linking clinical, genomic and transcriptomics patient characteristics with response at multiple time points. A second filtering step focused on relationships with response at week 57 only, raising […], and lift≥1.5, and excluding RNA expression, CYP variants and dose/concentration from Part A. This further reduced the number of rules to 15 associations linked to outcome as measured by Delta (with binarized discretization) or Slope of MMSE or ADCS-ADL at week 57. The 15 rules are presented in order of highest confidence and highest lift. The stringent filtering focused on relationships of response at week 57 (end of Part B), reduced the number of associations to only 15 linked to outcomes as measured by Delta or Slope MMSE or ADCS-ADL (Table 4). […] Higher concentrations improved Delta ADCS-ADL scores (p=0.03) (FIG. 2C).
# The KEM® (Knowledge Extraction and Management) v 3.6.2 software was used to systematically extract relations between all variables collected. […]
# P-values from two statistical tests were calculated for each association rule. […]
compound,measurement,setting,value
"CN(C)CC1CCOC1(c1ccccc1)c1ccccc1.Cl (stereo not drawn) [ANAVEX2-73, tetrahydro-N,N-dimethyl-2,2-diphenyl-3-furanmethanamine hydrochloride]","Confidence, High Concentration Part B -> MMSE Slope Improve","Week 57, Support 5, nx 8, ny 7",0.63
same,"Lift, High Concentration Part B -> MMSE Slope Improve","Week 57, Support 5, nx 8, ny 7",1.88
same,increase in probability of improved MMSE outcome,"average blood concentration above 4 ng/mL in Part B, week 57",1.88 fold
